By inhibition is commonly meant the change of the read-out against control, counted positive when it falls. The term IC50 denotes the point on the concentration scale where inhibition reaches its midpoint.

Data set [1] has as its system NIH-Swiss mice. The data set is described as follows: Forced Swim Test in mice. In kind it is in vivo, mouse. Particulars: i.p. Here is the method: In this assay, mechanisms with purported antidepressant-like activity decrease immobility in a brief inescapable forced swim episode.
The forced-swim test is conducted with both mice (male, NIH-Swiss mice, 20-25 g, Harlan Sprague-Dawley, Indianapolis, Ind.) and rats (male, Sprague-Dawley rats, 250-350 g, Harlan Sprague-Dawley, Indianapolis, Ind.). Mice are placed in clear plastic cylinders (diameter 10 cm; height: 25 cm) filled to 6 cm with 22-25° C. water for six min. The duration of immobility is recorded during the last 4 min of a six-minute trial. Rats are treated similarly, albeit in clear plastic cylinders of larger dimensions (diameter: 18 cm; height: 40 cm) filled with water (22-25° C.) to a depth of 16 cm for 15 min. Additionally, mice receive a single forced swim exposure; rats receive two, 5-min sessions separated by 24 hours (data is recorded only on Day 2). […] Imipramine is used as a positive control for these studies. […] Compounds are in a clear solution. The amount of time spent immobile (defined as movements only necessary to keep the subject's head above water) is the dependent measure and recorded by an observer blinded to the drug treatment of the subjects. Data are analyzed by post-hoc Dunnett's test with alpha level set at 0.05. The mouse version of the forced swim test is most commonly used.

The target in data set [2] is T1, hPepT1 (Homo sapiens, UniProt P46059).
T1 construct: expressed in transfected cells; host or cells: HeLa cells (ATCC), transient transfection with FuGene6
T1 sequence (P46059 1-708): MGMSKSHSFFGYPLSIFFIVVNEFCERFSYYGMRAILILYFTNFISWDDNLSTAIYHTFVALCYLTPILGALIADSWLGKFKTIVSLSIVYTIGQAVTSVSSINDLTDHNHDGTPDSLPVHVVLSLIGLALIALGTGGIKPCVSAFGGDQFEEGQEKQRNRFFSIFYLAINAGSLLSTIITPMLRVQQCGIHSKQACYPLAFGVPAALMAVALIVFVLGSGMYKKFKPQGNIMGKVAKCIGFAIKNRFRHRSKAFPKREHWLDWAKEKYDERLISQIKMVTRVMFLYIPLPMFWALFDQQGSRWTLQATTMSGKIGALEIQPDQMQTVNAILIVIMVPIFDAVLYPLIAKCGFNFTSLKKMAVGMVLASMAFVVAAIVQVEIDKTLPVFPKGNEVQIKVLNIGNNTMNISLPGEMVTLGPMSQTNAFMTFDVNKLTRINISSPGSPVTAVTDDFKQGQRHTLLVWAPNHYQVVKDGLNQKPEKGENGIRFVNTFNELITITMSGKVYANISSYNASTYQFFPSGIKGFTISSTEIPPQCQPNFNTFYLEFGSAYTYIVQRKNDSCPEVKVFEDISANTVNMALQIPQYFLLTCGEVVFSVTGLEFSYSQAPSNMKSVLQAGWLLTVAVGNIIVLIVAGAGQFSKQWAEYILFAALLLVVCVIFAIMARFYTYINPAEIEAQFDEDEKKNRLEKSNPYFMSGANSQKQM
The data set is described as follows: In Vitro PepT1 GlySar Inhibition Screen and IC50 Determination. In kind it is cell-based. As to the method:
PepT1 assays are established to examine the ability of the amino acid prodrug compounds to interact with the intestinal absorption transporter PepT1.
HeLa cells, […], (American Type Culture Collection) are grown in Hyclone Medium (Invitrogen, Cat# SH30243) containing 10% fetal bovine serum (FBS), 0.1 mM non essential amino acids (NEAA), and 100 units/mL penicillin with 100 μg/mL streptomycin at 37° C. in a 5% CO2 humidified atmosphere. The cell line is used for up to 40 passages and then discarded. Frozen cells in 1 ml vials are thawed in water bath for 1-2 minutes and added to 5 mL of cell medium at 37° C. Each of the T-flasks is provided with 8.5 mL of the fresh medium and 1.5 mL of the cell stock. Cells are passaged twice during a week. This is achieved by rinsing the flasks with 10 mL of phosphate buffered saline-ethylene diaminetetra acetic acid (PBS-EDTA), adding 2 mL of trypsin for 2-5 minutes, to detach the cells, and adding 8 mL of fresh medium to inhibit further activity of trypsin. Each new flask receives a combination of 8.5 mL of fresh medium and 1.5 mL of cell stock, in order to obtain 1:6 cell dilution. Cells are incubated at 37° C., until ready for the uptake study.
Cells that are 70-80% confluent in the T-flasks are plated 1 day prior to the transfection procedure. The flask with the cell stock is treated with PBS-EDTA and trypsin to detach the cells, and transfection medium is used from this point. Transfection medium consists of Dulbecco's Modified Eagle Medium (DMEM)+NEAA. To each well, 0.5 mL of the cell mixture is added (1.3×10^5 is the desired cell concentration) and the cells are incubated at 37° C. overnight. Twenty four hours before the assay, cells are transfected with PEPT1. Transfection mixture is prepared by mixing 600 μL of serum free transfection medium, 18 μL of FuGene6 (Roche Diagnostics), and 11 μg of the PepT1 DNA. The transfection reagent-DNA complex is incubated for 20 minutes and 24 μL of the reagent-DNA complex is added to each well.
J. Pharm. Exper Ther. 310:437-445). […] Uptake media consists of 140 mM NaCl, 5.4 mM KCl, 1.8 mM CaCl2, 0.8 mM MgSO4, 5 mM Glucose, 25 mM tris(hydroxymethyl)aminomethane buffer (TRIS). The solution is then brought to pH 6.0 using 2-(N-morpholino)ethanesulfonic acid. The incubation volume is 500 μL and is performed at room temperature for 3 minutes. To stop the uptake at the conclusion of the incubation time, the uptake media is aspirated off of the cell monolayer and 500 μL of ice cold PBS added to the well. The cells are washed 3 times with 500 μL of room temperature PBS without Ca^+2 and Mg^+2. The cells are then lysed with 300 μL of 1% Triton X100 H2O solution. […] A no inhibitor control is established and the percent inhibition of each prodrug is calculated with respect to this control.
The incubation and sampling procedures are exactly the same as the PepT1 screen described above. […]

For data set [3] the following is noted: 1 h, 10 µM, pH 7.4.
Description: Frozen human duodenum intestinal homogenates (1:2 tissue:buffer ratio using 100 mM Tris Phosphate buffer, pH 7.4) are obtained from Celsius In Vitro Technologies (Baltimore, Md.) that were both phenylmethylsulphonylfluoride (PMSF) and EDTA free.
Each lot of human duodenum is obtained from a single donor and the intestine is scraped and the sections are frozen separate. All original tissue collections are performed at 4° C. and immediately frozen at −70° C. Human intestinal homogenates are thawed and diluted to a final protein concentration of 0.5 mg/mL in 100 mM PBS buffer, pH 7.4 immediately prior to the incubations.
Incubations are conducted in 96-well plates and all prodrug compounds are run in duplicate on each day. Stock prodrug compound solutions are prepared in water at a concentration of 1 mM. A 200 μL aliquot of 0.5 mg/mL intestinal homogenate and 196 μL of 100 mM PBS buffer are placed in a 96-well plate in a 37° C. water bath. Using a 96-well pipettor, 4 μL of the 1 mM prodrug compound solution is transferred into the homogenate. Immediately after addition of the prodrug compound (time zero) and after 1 hour incubation, 50 μL samples of the incubation mixture are removed using an automated disposable simultaneous 96 well pipettor and added directly to 200 μL of methanol quench solution containing 100 ng/mL of Internal Standard. The samples are then centrifuged at 3500 rpm for 5 minutes at 10° C. The supernatant (200 μL) is transferred to a final 96 well PCR plate and sealed for analysis by LC/MS/MS.
Concentrations of hydrolyzed compounds of the present invention in the incubation mixtures are determined using LC/MS/MS detection on a Sciex API 4000 quadrapole mass spectrometer with Analyst version 1.4.2, TurboIonSpray, positive ionization, and Selected Reaction Monitoring (SRM). A Waters Atlantis® T3 (20×2.1 mm, 5 μM) HPLC column is used at ambient temperature with a flow rate of 1.0 mL/min and a mobile phase gradient from 0.1% mobile phase A to 99% mobile phase A. Mobile phase A is 1000:5 water:heptafluorobuteric acid and mobile phase B is 1:1 methanol:glacial acetic acid.
Concentrations of hydrolyzed compounds of the present invention in the intestinal incubation mixtures are determined from standard curves prepared by replicate two-fold dilution starting at 10 μM in 100 mM PBS pH 7.4 and subsequently quenched with methanol-internal standard solution identical to the samples. Averages and standard deviations are calculated using Microsoft® Office Excel® 2007. Amount of hydrolysis is determined as a molar percentage of compound formed relative to prodrug compound concentration added. […] Final values are then normalized relative to the formation of Internal Compound Drug A.
Setting [4] is: mean and standard error of the mean.

The compound `N[C@@]1(C(=O)O)C[C@@H](Sc2nnc[nH]2)[C@H]2[C@H](C(=O)O)[C@H]21` [Example 1, (1R,2S,4R,5R,6R)-2-Amino-4-(4H-1,2,4-triazol-3-ylsulfanyl)bicyclo[3.1.0]hexane-2,6-dicarboxylic acid] yielded an ED60 in data set [1] (60 min prior to testing, single study) of 10.5 mg/kg. Moreover, the antidepressant-like effects entry in data set [1] (F4,39=9.9, p<0.0001) is reported as “prominent antidepressant-like effects”. Moreover, the “maximal effect, % of vehicle immobility levels” value in data set [1] (at the 10 mg/kg dose, single study) amounted to 61%. In data set [1] (setting [4]), the “ED60, mean of four separate replications” value was 6.1 ± 2.5 mg/kg and the “maximal effect, % of vehicle-treated immobility levels, four separate replications” value was 49.5±11.5%.
Take `C[C@H](N)C(=O)N[C@@]1(C(=O)O)C[C@@H](Sc2nnc[nH]2)[C@H]2[C@H](C(=O)O)[C@H]21.Cl` [Example 2, (1R,2S,4R,5R,6R)-2-[[(2S)-2-Aminopropanoyl]amino]-4-(1H-1,2,4-triazol-3-ylsulfanyl)bicyclo[3.1.0]hexane-2,6-dicarboxylic acid hydrochloride]: the inhibition at 5000 µM in data set [2] (5 mM, pH 6.0, PepT1 transiently transfected HeLa cells, read-out: hPepT1 [3H]Gly-Sar uptake inhibition at 5 mM) stood at 38%. The IC50 in data set [2] (0.0625 to 25 mM, PepT1 transfected HeLa cells, read-out: hPepT1 [3H]Gly-Sar uptake inhibition IC50) was found to be 1.84 mM. Also, the “human intestinal hydrolysis relative to Internal Prodrug Compound A” value in data set [3] amounted to 61%.
